Data taken from US8501433B2, “Solvent for chromogenic substrate solution” (Pierce Biotechnology, Inc., priority 2002, dated 2013).

Assay: Dissolution of X-gal (and antibiotics) in non-toxic solvents
Format: physicochemical
Conditions: non-toxic solvent solutions of the invention
Procedure: A combination of essential oil was extracted with chloroform in order to remove part of the oil phase, and create a semi-precipitated emulsion. For example, 20 ml of citrus extract, pine terpenoids, limonene oils and linseed oil was mixed with 20 ml of Chloroform by vigorously shaking in a 50 ml falcon tube. The resulting mix was let stand for approximately one day, and then the upper phase was transferred to a 15 ml falcon tube.
In the case of `CC1(C)S[C@@H]2[C@H](NC(=O)[C@H](N)c3ccccc3)C(=O)N2[C@H]1C(=O)O` [Ampicillin], the “dissolution in the same solutions as X-gal” value (shortened to “dissolution”) is reported as “stable dissolution”. With `O=C(N[C@H](CO)[C@H](O)c1ccc([N+](=O)[O-])cc1)C(Cl)Cl` [Chloramphenicol] the “dissolution” value was “stable dissolution”. In the case of `CN(C)[C@@H]1C(=O)C(C(N)=O)=C(O)[C@@]2(O)C(=O)C3=C(O)c4c(O)cccc4[C@@](C)(O)[C@H]3C[C@@H]12` [Tetracyclin], the “dissolution” value is reported as “stable dissolution”.
